Measured values: patent publication US20010048946A1, “SOLID PHARMACEUTICAL DOSAGE FORMS IN FORM OF A PARTICULATE DISPERSION” (priority 1997, published 2001)

Key:
[1] = Dissolution testing, USP apparatus II, 900 mL medium, 37° C., 75 rpm; format: physicochemical; details: 100 mg CI-991
Description: (0.1 M) Phosphate solution was prepared by dissolving a calculated amount of Na2HPO4 in USP water. The pH-value of the (0.1 M) phosphate solution was then adjusted to 8.0±0.02 by 85% phosphoric acid to give a pH 8 (0.1 M) phosphate buffer. An appropriate amount of SLS was added and dissolved in the pH 8 (0.1 M) phosphate buffer to give the pH 8 (0.1 M) phosphate buffer containing 0.5% (g/mL) SLS.
(0.05 M) Phosphate solution was prepared by mixing 1:1 ratio of the aqueous solutions of (0.025 M) Na2HPO4 and (0.025 M) K2HPO4. The pH value of the (0.05 M) phosphate solution was then adjusted to 9.0±0.02 by 85% phosphoric acid to give the pH 9 (0.05 M) phosphate buffer.
The dissolution studies were conducted in 900 mL of dissolution medium maintained at 37° C., using USP apparatus II (Distek 2100A dissolution system, North Brunswick, N.J.) at 75 rpm of paddle speed. After dispersing a sample containing 100 mg of CI-991 into the dissolution medium, about 10 mL of solutions were periodically sampled and filtered by Gelman Nylon Acrodisc 0.45 μm filters to give clear filtrates (discard the first 2 mL filtrate). The extent of the drug dissolved in the dissolution medium was determined by UV spectrometry at λ=284 nm. Interference by the excipients was not observed during analysis. Experiments were run in duplicate, and the results were averaged.

[2] = gastrointestinal pH range of 1.0 to 7.5; cited from earlier work
[3] = pH 8 (0.1 M) phosphate buffer containing 0.5% SLS

Percent of CI-991 Dissolved in Solution at 5 min [1, 3]: 3.9 ± 0.1%
Percent of CI-991 Dissolved in Solution at 10 min [1, 3]: 6.3 ± 0.1%
Percent of CI-991 Dissolved in Solution at 15 min [1, 3]: 8.2 ± 0.1%
Percent of CI-991 Dissolved in Solution at 5 min ([1]; pH 9 (0.05 M) phosphate buffer): 0.5 ± 0.1%
Percent of CI-991 Dissolved in Solution at 10 min ([1]; pH 9 (0.05 M) phosphate buffer): 0.4 ± 0.1%
Percent of CI-991 Dissolved in Solution at 15 min ([1]; pH 9 (0.05 M) phosphate buffer): 1.2 ± 0.2%
Compound: Cc1c(C)c2c(c(C)c1O)CCC(C)(COc1ccc(CC3SC(=O)NC3=O)cc1)O2 (stereo not shown) [CI-991 Pure Drug, Troglitazone]
water solubility (in words) [2]: practically water-insoluble
